3 compounds from ChEMBL document CHEMBL3808343, “Glutaminase GLS1 Inhibitors as Potential Cancer Treatment” (ACS Med Chem Lett, 2016) can be followed below.

Each structure is given as a SMILES string.

Experiment [1] has as its target T1, Glutaminase kidney isoform, mitochondrial (Homo sapiens, UniProt O94925).
T1 sequence (O94925 whole entry): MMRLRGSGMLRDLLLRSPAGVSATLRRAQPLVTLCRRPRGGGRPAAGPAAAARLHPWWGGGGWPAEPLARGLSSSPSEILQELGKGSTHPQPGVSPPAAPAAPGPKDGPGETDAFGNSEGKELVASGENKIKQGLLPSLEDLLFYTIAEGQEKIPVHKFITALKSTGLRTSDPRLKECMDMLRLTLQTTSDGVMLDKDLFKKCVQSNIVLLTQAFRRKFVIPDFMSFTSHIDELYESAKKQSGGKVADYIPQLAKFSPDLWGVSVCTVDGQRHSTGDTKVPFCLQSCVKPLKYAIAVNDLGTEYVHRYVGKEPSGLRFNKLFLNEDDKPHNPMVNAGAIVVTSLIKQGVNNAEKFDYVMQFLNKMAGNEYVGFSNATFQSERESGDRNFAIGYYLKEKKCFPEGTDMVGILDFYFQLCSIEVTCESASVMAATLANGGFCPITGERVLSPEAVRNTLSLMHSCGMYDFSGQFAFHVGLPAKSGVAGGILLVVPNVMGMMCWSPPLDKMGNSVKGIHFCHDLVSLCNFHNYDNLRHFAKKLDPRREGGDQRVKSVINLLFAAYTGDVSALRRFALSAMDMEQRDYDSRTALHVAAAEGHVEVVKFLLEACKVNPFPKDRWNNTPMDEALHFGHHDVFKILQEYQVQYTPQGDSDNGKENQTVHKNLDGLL
Description: Inhibition of 6His-tagged GLS1 (63-669 residues) (unknown origin) expressed in Escherichia coli using glutamine as substrate after 15 mins by Glutamate Oxidase/ AmplexRed coupled assay

Experiment [2] concerns NCI-H1703. The experiment can be described thus: Antiproliferative activity against human NCI-H1703 cells assessed as reduction in cell growth after 5 days by Sytox Green dye based assay. The conditions noted are these: NCI-H1703, 120 h. The experiment is classed as functional.
For experiment [3], the target named is T1, Glutaminase kidney isoform, mitochondrial. The experiment can be described thus: Inhibition of GLS1 in human PC3 cells assessed as cellular glutamate depletion levels after 6 hrs by Glutamate Oxidase/ AmplexRed coupled assay. The experiment is classed as cell-based, PC-3.

In general, IC50 refers to the concentration that gives 50% inhibition.

On to `COc1cc([C@@H](OC)C(=O)Nc2nnc(N[C@@H]3CCN(c4cncnn4)C3)s2)ccc1F`, for which the concentration for half-maximal inhibition (IC50) in experiment [1] came out at 70.7 nM; in experiment [2], 107 nM; in experiment [3] it was 4.99 nM.

Regarding `COc1ccc([C@H](OC)C(=O)Nc2nnc(N[C@@H]3CCN(c4cccnn4)C3)s2)cc1`, the IC50 in experiment [2] was 10.8 nM.

Take `CO[C@H](C(=O)Nc1nnc(N[C@@H]2CCN(c3cncnn3)C2)s1)c1ccccc1`: the IC50 in experiment [2] is 3.24 nM.
